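These data come from cells grown in 96-well plates and exposed to compound for 48 hours at five concentrations. GI50 is the concentration that inhibits growth by half.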 Active and inactive are the calls of the source. Cut-off read from the data, not from the text of the source: active = GI50 up to about 1.1 µM and inactive = higher.
Columns and labels:
Test in all cases: growth of human tumour cells (NCI), 48 h
COLO 205 = tested on: COLO 205
SK-MEL-2 = tested on: SK-MEL-2
SNB-75 = tested on: SNB-75
HOP-92 = tested on: HOP-92
DMS-114 = tested on: DMS-114
SF-268 = tested on: SF-268
TK-10 = tested on: TK-10
OVCAR-8 = tested on: OVCAR-8
K562 = tested on: K562
UACC-257 = tested on: UACC-257
NCI-H23 = tested on: NCI-H23
HL-60 = tested on: HL-60
M14 = tested on: M14
SK-MEL-5 = tested on: SK-MEL-5
UO-31 = tested on: UO-31
IGROV-1 = tested on: IGROV-1
RPMI-8226 = tested on: RPMI-8226
KM12 = tested on: KM12
HOP-62 = tested on: HOP-62
SK-OV-3 = tested on: SK-OV-3

Row | Structure (SMILES) | GI50 (COLO 205) | GI50 (SK-MEL-2) | GI50 (SNB-75) | GI50 (HOP-92) | GI50 (DMS-114) | GI50 (SF-268) | GI50 (TK-10) | GI50 (OVCAR-8) | GI50 (K562) | GI50 (UACC-257) | GI50 (NCI-H23) | GI50 (HL-60) | GI50 (M14) | GI50 (SK-MEL-5) | GI50 (UO-31) | GI50 (IGROV-1) | GI50 (RPMI-8226) | GI50 (KM12) | GI50 (HOP-62) | GI50 (SK-OV-3)
1 | Cc1nc2c(c(=O)[nH]1)S/C(=C(/C#N)c1nc3ccccc3[nH]1)N2c1ccccc1 | > 100 µM (inactive) | > 100 µM (inactive) | > 100 µM (inactive) | > 100 µM (inactive) | > 100 µM (inactive) | > 100 µM (inactive) | > 100 µM (inactive) | > 100 µM (inactive) | > 100 µM (inactive) | > 100 µM (inactive) | > 100 µM (inactive) | > 100 µM (inactive) | > 100 µM (inactive) | > 100 µM (inactive) | > 100 µM (inactive) | > 100 µM (inactive) | > 100 µM (inactive) | > 100 µM (inactive) | > 100 µM (inactive) | > 100 µM (inactive)
2 | Cc1ccc2[nH]c3c(C)c4ccncc4c(C)c3c2c1 | 0.873 µM (active) | 1.59 µM (inactive) | 1.65 µM (inactive) | 0.553 µM (active) | 0.369 µM (active) | 0.733 µM (active) | 3.81 µM (inactive) | 0.328 µM (active) | 0.519 µM (active) | 1.41 µM (inactive) | 1.24 µM (inactive) | 1.22 µM (inactive) | 1.67 µM (inactive) | 1.6 µM (inactive) | 1.58 µM (inactive) | 0.944 µM (active) | 1.09 µM (active) | 0.614 µM (active) | 1.19 µM (inactive) | 2.23 µM (inactive)
3 | COc1ccc(N2C(Cl)C(=O)C2c2c[nH]c3ccccc23)cc1 (stereo not given) | > 100 µM (inactive) | > 100 µM (inactive) | > 100 µM (inactive) | 28.3 µM (inactive) | > 100 µM (inactive) | > 100 µM (inactive) | > 100 µM (inactive) | > 100 µM (inactive) | 94.8 µM (inactive) | > 100 µM (inactive) | > 100 µM (inactive) | > 100 µM (inactive) | > 100 µM (inactive) | > 100 µM (inactive) | 51.9 µM (inactive) | > 100 µM (inactive) | > 100 µM (inactive) | > 100 µM (inactive) | > 100 µM (inactive) | > 100 µM (inactive)
4 | CN/N=C(\C(=O)Nc1ccc(C)c(C)c1)C(C(=O)OC)c1nc2ccc([N+](=O)[O-])cc2nc1O (stereo not given) | > 100 µM (inactive) | > 100 µM (inactive) | > 100 µM (inactive) | > 100 µM (inactive) | 42.2 µM (inactive) | > 100 µM (inactive) | > 100 µM (inactive) | > 100 µM (inactive) | > 100 µM (inactive) | > 100 µM (inactive) | > 100 µM (inactive) | 50.9 µM (inactive) | > 100 µM (inactive) | > 100 µM (inactive) | > 100 µM (inactive) | > 100 µM (inactive) | 52.7 µM (inactive) | 94.4 µM (inactive) | > 100 µM (inactive) | > 100 µM (inactive)
